Measurements taken from PubChem BioAssay AID248 (DTP/NCI, 2004).
Several values for one entry are separate records, joined by “and”; a condition that tells them apart may be missing. Equal values may be shown once. Inconclusive results and toxic doses are left out. Cut-off read from the data, not from the text of the source: active = T/C of 150% or more; inactive = T/C below 125%.

Tested on: L1210 leukemia ip in BDF1 mice, survival T/C
Test: NCI In Vivo Anticancer Drug Screen. Data for tumor model L1210 Leukemia (intraperitoneal) in B6D2F1 (BDF1) mice
Conditions: endpoint: mean survival time, higher = longer survival
In short: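 Transplantable tumor model; survival measured in treated vs vehicle control mice. Value = treated/control.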

[1] = dose: 100.0 mg/kg/injection, schedule: Q04DX002 (ip), vehicle: Klucel (hydroxypropylcellulose) (HPC)
[2] = dose: 100.0 mg/kg/injection, schedule: Q01DX009 (ip), vehicle: Klucel (hydroxypropylcellulose) (HPC)
[3] = dose: 100.0 mg/kg/injection, schedule: Q04DX003 (ip), vehicle: Klucel (hydroxypropylcellulose) (HPC)
[4] = dose: 200.0 mg/kg/injection, schedule: Q01DX009 (ip), vehicle: Klucel (hydroxypropylcellulose) (HPC)
[5] = dose: 200.0 mg/kg/injection, schedule: Q04DX003 (ip), vehicle: Klucel (hydroxypropylcellulose) (HPC)
[6] = dose: 400.0 mg/kg/injection, schedule: Q01DX009 (ip), vehicle: Klucel (hydroxypropylcellulose) (HPC)
[7] = dose: 400.0 mg/kg/injection, schedule: Q04DX003 (ip), vehicle: Klucel (hydroxypropylcellulose) (HPC)
[8] = dose: 100.0 mg/kg/injection, schedule: Q04DX003 (ip), vehicle: saline with Tween-80
[9] = dose: 50.0 mg/kg/injection, schedule: Q01DX001 (ip), vehicle: saline
[10] = dose: 100.0 mg/kg/injection, schedule: Q01DX001 (ip), vehicle: saline
[11] = dose: 100.0 mg/kg/injection, schedule: Q01DX009 (ip), vehicle: saline
[12] = dose: 100.0 mg/kg/injection, schedule: Q04DX002 (ip), vehicle: saline
[13] = dose: 200.0 mg/kg/injection, schedule: Q04DX002 (ip), vehicle: saline
[14] = dose: 200.0 mg/kg/injection, schedule: Q01DX001 (ip), vehicle: saline
[15] = dose: 400.0 mg/kg/injection, schedule: Q01DX001 (ip), vehicle: saline
[16] = dose: 200.0 mg/kg/injection, schedule: Q04DX002 (ip), vehicle: Klucel (hydroxypropylcellulose) (HPC)
[17] = dose: 400.0 mg/kg/injection, schedule: Q04DX002 (ip), vehicle: Klucel (hydroxypropylcellulose) (HPC)
[18] = dose: 400.0 mg/kg/injection, schedule: Q04DX003 (ip), vehicle: saline with Tween-80
[19] = dose: 100.0 mg/kg/injection, schedule: Q01DX001 (ip), vehicle: carboxymethylcellulose (CMC)
[20] = dose: 200.0 mg/kg/injection, schedule: Q01DX001 (ip), vehicle: carboxymethylcellulose (CMC)
[21] = dose: 400.0 mg/kg/injection, schedule: Q01DX001 (ip), vehicle: carboxymethylcellulose (CMC)

Measured: T/C

CC(=O)Nc1cc(NC(C)=O)cc(N(CCO)CCO)c1
inactive: dose: 25.0 mg/kg/injection, schedule: Q01DX009 (ip), vehicle: water 97 % of control | dose: 50.0 mg/kg/injection, schedule: Q01DX009 (ip), vehicle: water 100 % of control | dose: 100.0 mg/kg/injection, schedule: Q01DX009 (ip), vehicle: water 106 % of control | dose: 400.0 mg/kg/injection, schedule: Q01DX009 (ip), vehicle: water 106 % of control

Nc1ccc(NS(=O)(=O)CS(=O)(=O)Nc2ccc(N)cc2)cc1
inactive: dose: 10.0 mg/kg/injection, schedule: Q01DX001 (ip), vehicle: saline 96 % of control | dose: 20.0 mg/kg/injection, schedule: Q01DX001 (ip), vehicle: saline 101 % of control | dose: 40.0 mg/kg/injection, schedule: Q01DX001 (ip), vehicle: saline 101 % of control

CCOC(=N)Cc1ccccc1
inactive: dose: 12.5 mg/kg/injection, schedule: Q04DX002 (ip), vehicle: Klucel (hydroxypropylcellulose) (HPC) 100 % of control | dose: 25.0 mg/kg/injection, schedule: Q04DX002 (ip), vehicle: Klucel (hydroxypropylcellulose) (HPC) 103 % of control | dose: 50.0 mg/kg/injection, schedule: Q04DX002 (ip), vehicle: Klucel (hydroxypropylcellulose) (HPC) 106 % of control | [1] 110 % of control

CC12C(C#N)=C(c3ccccc3)C=C(c3ccccc3)C1=C(c1ccccc1)c1ccccc12 (stereo not given)
inactive: [2] 100 % of control | [3] 89 % of control | [4] 100 % of control | [5] 100 % of control | [6] 94 % of control | [7] 94 % of control

COc1cc(OC)c(NC(=O)/C=C/c2ccccc2)cc1Cl
inactive: [2] 92 % of control | [4] 100 % of control | [6] 95 % of control

CC1(C)Oc2ccccc2O1
inactive: [8] 93 % of control

O=C(O)c1ccc(N/N=C/C(F)(F)F)cc1
inactive: dose: 25.0 mg/kg/injection, schedule: Q01DX009 (ip), vehicle: saline 95 % of control and 98 % of control | [9] 110 % of control | dose: 50.0 mg/kg/injection, schedule: Q01DX009 (ip), vehicle: saline 93 % of control and 106 % of control | [10] 96 % of control | [11] 95 % of control and 87 % of control | [12] 106 % of control and 109 % of control | [13] 96 % of control

COc1ccccc1NC(=O)NNC(=O)CCCC(=O)NNC(=O)Nc1ccccc1OC
inactive: [9] 100 % of control | [10] 97 % of control | [14] 103 % of control | [15] 97 % of control

CC/C=C(\C)C1(C(C)C)C(=O)NC(=O)NC1=O
inactive: dose: 75.0 mg/kg/injection, schedule: Q01DX001 (ip), vehicle: carboxymethylcellulose (CMC) 105 % of control

S=C(c1ccccc1)N1CCOCC1
inactive: [1] 100 % of control | [16] 111 % of control | [17] 96 % of control

O=P(Oc1ccccc1)(Oc1ccccc1)C(Nc1ccccc1)c1ccccc1 (stereo not given)
inactive: [18] 90 % of control

OC/C=C\CO
inactive: [10] 97 % of control and 103 % of control | [14] 97 % of control and 100 % of control | [15] 97 % of control and 105 % of control

O=C(O)c1cccc(OCc2ccccc2)c1
inactive: [2] 105 % of control | [4] 100 % of control

Cc1cccc(C)c1N1C(=O)C2C(C1=O)C1(Cl)C(Cl)=C(Cl)C2(Cl)C1(Cl)Cl (stereo not given)
inactive: dose: 50.0 mg/kg/injection, schedule: Q01DX009 (ip), vehicle: Klucel (hydroxypropylcellulose) (HPC) 95 % of control | [2] 101 % of control | [3] 114 % of control | [5] 101 % of control

CNC(=S)n1cncn1
inactive: [11] 91 % of control | dose: 200.0 mg/kg/injection, schedule: Q01DX009 (ip), vehicle: saline 108 % of control | dose: 400.0 mg/kg/injection, schedule: Q01DX009 (ip), vehicle: saline 92 % of control

Oc1ccccc1-c1nc2cc(Cl)ccc2o1
inactive: [1] 97 % of control | [16] 97 % of control | [17] 101 % of control

COc1ccc(Cl)cc1NC(=O)Nc1cccc(F)c1
inactive: [2] 97 % of control | [4] 97 % of control | [6] 97 % of control

O=c1c2ccccc2[nH]c(=S)n1CCc1ccccn1
inactive: [1] 100 % of control | [16] 95 % of control | [17] 89 % of control

N#Cc1cn(-c2ccc(Cl)cc2)c2ncccc12
inactive: dose: 25.0 mg/kg/injection, schedule: Q01DX001 (ip), vehicle: saline 100 % of control | [9] 100 % of control | dose: 100.0 mg/kg/injection, schedule: Q01DX001 (ip), vehicle: saline with Tween-80 88 % of control | [10] 100 % of control | [14] 87 % of control | [15] 102 % of control

CCc1ncc(C(C)(O)c2ccc(Cl)cc2)n1Cc1ccccc1 (stereo not given)
inactive: [3] 94 % of control | [5] 92 % of control | [7] 89 % of control

Cc1nc(N)nc(N)c1CCCOc1ccc(N)cc1
inactive: dose: 100.0 mg/kg/injection, schedule: Q01DX001 (ip), vehicle: Klucel (hydroxypropylcellulose) (HPC) 103 % of control | dose: 200.0 mg/kg/injection, schedule: Q01DX001 (ip), vehicle: Klucel (hydroxypropylcellulose) (HPC) 97 % of control | dose: 400.0 mg/kg/injection, schedule: Q01DX001 (ip), vehicle: Klucel (hydroxypropylcellulose) (HPC) 100 % of control

ClC(Cl)=C(Cl)C(Cl)=C(Cl)Cl
inactive: dose: 3.13 mg/kg/injection, schedule: Q04DX003 (ip), vehicle: Klucel (hydroxypropylcellulose) (HPC) 98 % of control | dose: 6.25 mg/kg/injection, schedule: Q04DX003 (ip), vehicle: Klucel (hydroxypropylcellulose) (HPC) 100 % of control | dose: 12.5 mg/kg/injection, schedule: Q04DX003 (ip), vehicle: Klucel (hydroxypropylcellulose) (HPC) 98 % of control | dose: 100.0 mg/kg/injection, schedule: Q04DX003 (ip), vehicle: carboxymethylcellulose (CMC) 101 % of control

CCN(CC)CCCC(C)Nc1c(C)cnc2cc(Cl)c(C)cc12 (stereo not given)
inactive: [9] 112 % of control | [10] 95 % of control | [14] 101 % of control

O=C(O)CS(=O)(=O)c1nc2ccccc2[nH]1
inactive: dose: 100.0 mg/kg/injection, schedule: Q01DX009 (ip), vehicle: carboxymethylcellulose (CMC) 94 % of control | dose: 200.0 mg/kg/injection, schedule: Q01DX009 (ip), vehicle: carboxymethylcellulose (CMC) 91 % of control | dose: 400.0 mg/kg/injection, schedule: Q01DX009 (ip), vehicle: carboxymethylcellulose (CMC) 91 % of control

CNS(=O)(=O)c1ccccc1C(C)(O)c1ccccc1 (stereo not given)
inactive: [10] 97 % of control | [14] 103 % of control | [15] 97 % of control

CCC#CC(O)(C(=O)OC)c1ccccc1 (stereo not given)
inactive: [19] 100 % of control | [20] 108 % of control | [21] 96 % of control

NC(=O)OCCOCCOC(N)=O
inactive: [8] 98 % of control | dose: 200.0 mg/kg/injection, schedule: Q04DX003 (ip), vehicle: saline with Tween-80 98 % of control | [18] 101 % of control

O=C1NC2C=CC1/C=C\C=C/2 (stereo not given)
inactive: [12] 96 % of control | [13] 86 % of control

CN(N=O)c1ccc(/C=C2\C=Cc3ccccc32)cc1
inactive: dose: 50.0 mg/kg/injection, schedule: Q01DX001 (ip), vehicle: carboxymethylcellulose (CMC) 96 % of control | [19] 93 % of control | [20] 96 % of control | [21] 98 % of control

CS(=O)(=O)Oc1c(Cl)cc(Cl)cc1Sc1cc(Cl)cc(Cl)c1OS(C)(=O)=O
inactive: [19] 95 % of control | [20] 104 % of control | [21] 101 % of control

CCCCOB(OCCCC)c1cccc(B(OCCCC)OCCCC)c1
inactive: [10] 89 % of control | [14] 101 % of control | [15] 117 % of control

Cc1cccc(C)c1NC(=S)N(CCC#N)Cc1ccccc1
inactive: [2] 107 % of control | [4] 94 % of control | [6] 96 % of control

CC(=O)Nc1ccc(NC(=O)Nc2ccc(F)cc2)cc1
inactive: [1] 108 % of control | [16] 118 % of control | [17] 105 % of control

C=C(C)C(=O)OCC1CO1 (stereo not given)
inactive: dose: 50.0 mg/kg/injection, schedule: Q01DX Z (ip), vehicle: other 90 % of control | dose: 100.0 mg/kg/injection, schedule: Q01DX Z (ip), vehicle: other 95 % of control | dose: 200.0 mg/kg/injection, schedule: Q01DX Z (ip), vehicle: other 107 % of control
